“Also recorded” adds a separate entry of the source. Read-outs that look alike come from different tables or passages of the source.
Experiments:
[1] = in vivo; cited from earlier work
[2] = Gamma irradiation: sterility and chemical stability; type: physicochemical; settings: after gamma irradiation
Excerpt: In order to be suitable for injection, the formulations must be sterile. […] Gamma irradiation was therefore used as the best available technique.
A Best Industries Gammaradiator 100 Cs-137 irradiator was used. The disulfiram unit doses were placed in the 20×20 cm irradiation chamber, 30 cm from a 1800 curie Cesium-137 source emitting 660 KeV gamma rays. The exposure rate at the point of irradiation was 90 R/min. A filter was placed in the beam to ensure a uniform exposure at the floor of the irradiation chamber. A total exposure of 50,000 R was administered. Prior to injection, approximately 10 cc of sterile normal saline was drawn up into the syringe which was then shaken vigorously to suspend the DSF powder. The resultant slurry could then be readily injected through a wide bore (e.g. 14 gauge) needle.

[3] = system: alcoholic human subjects; test: Clinical study: tolerability, injection site and systemic effects; type: in vivo; settings: 250 mg every morning, two subjects
Procedure: (§1) Two alcoholic human subjects were studied: Subject No.1 and subject No. 2 a person.
(§2) Each subject discontinued oral disulfiram one week before commencing the study. On day zero, each fasted from the preceding midnight, then received a standard alcohol challenge (0.15 G/kg). After eating a meal, and confirming by breath testing (with an Alco-Sensor III) that the blood ethanol concentration had fallen to zero, subject No. 1 received a dose of 1 G disulfiram subcutaneously. The drug was administered in the upper outer quadrant of the right buttock with aseptic precautions using a 14 G needle, after preparing the skin with infiltration of local anesthetic. A control injection of sterile normal saline was administered to the left buttock. Subject No. 2 received 2 G disulfiram in a similar fashion.
(§3) A similar alcohol challenge was then repeated on days 7, 14, 21, and 28 after the injection. A physical examination was performed at each visit and the injection site examined.

[4] = system: alcoholic human subjects; test: Clinical study: subjective and clinical response to alcohol challenge; type: in vivo
Procedure: as §1, §2, §3
Subjective responses--the subject was asked to state aloud the number in the following table which most closely accorded with the way he or she felt at the moment. This response was executed every five minutes, following the alcohol challenge, for a two hour period.

[5] = system: acetaldehyde in breath; test: Clinical study: peak acetaldehyde concentration in the breath after alcohol challenge; type: in vivo, human
Procedure: (§4) The method utilizes a Pyrex glass gas-collecting tube (internal volume approximately 300 cc) sealed at both ends with Teflon® taps. A side-port sealed with a Neoprene rubber septum permits sampling of the contents. The tube is first heated to approximately 70° C. to prevent any condensation from the breath. The subject then blows forcefully into the tube, and the Teflon taps are closed at the end of expiration while the tube is still in the subject's mouth. The tube is then taken to the laboratory, where, after reheating to 70° C., a 2.0 ml sample of the breath is aspirated through the Neoprene septum with a heated syringe and immediately injected into a Gas Chromatograph, for assay of ethanol and acetaldehyde by a standard flame-ionization detection technique. (The method has been described by Phillips et al. in Alcoholism: Clinical & Experimental Research 1984; 8:293-296.)
(§5) Each subject discontinued oral disulfiram one week before commencing the study. On day zero, each fasted from the preceding midnight, then received a standard alcohol challenge (0.15 G/kg). After eating a meal, and confirming by breath testing (with an Alco-Sensor III) that the blood ethanol concentration had fallen to zero, subject No. 1 received a dose of 1 G disulfiram subcutaneously. […]

[6] = system: ethanol in breath; test: Clinical study: peak ethanol concentration in the breath after alcohol challenge; type: in vivo, human; settings: compared to peak prior to treatment
Procedure: as §4, §5

[7] = cited from earlier work
[8] = system: aldehyde dehydrogenase; settings: thiol groups, cited from earlier work
[9] = system: dopamine beta hydroxylase; settings: cited from earlier work
[10] = system: alcoholic humans; settings: cited from earlier work
[11] = Local and systemic toxicity after subcutaneous implantation in rats
Excerpt: Two groups of animals were studied: a test group receiving the subcutaneous C-14-disulfiram-PLGA implant, and a control group receiving subcutaneous uncompounded C-14-disulfiram. Each group comprised five Wistar CD-1 male rats weighing between 100-120 g. After anesthesia with Penthrane (Abbott Laboratories), a slit was cut in the skin of the interscapular region and a small subcutaneous pocket was dissected, large enough for the introduction of the 1/8 inch diameter rods. Each rat received 500 mg of the 20% composite rods (containing 100 mg C-14-disulfiram and 400 mg PLFA) and the wound was closed with clips. […] No attempt was made to preserve strict asepsis during these procedures.
All rats were individually housed in metabolic cages to facilitate the separate collection of urine and feces. Prior to implantation, their fecal and urine samples were collected to determine background counts. Subsequent samples of all excreted urine and feces were collected on days 1,2,7,9,11, 15,18,22,25,29,32,39,46,53,60,67,74,81 and 88 after implantation. Urine samples were assayed for C-14 labelled material in a Beckman LS-230 liquid scintillation counter, and the excretion was calculated as the mass of implanted disulfiram which contained an equivalent amount of radiolabel. Feces were combusted to 14-CO2 with a Harvey Biological oxidizer and absorbed in oxyfluor-CO2 (New England Nuclear) for counting. […]

[12] = pre-treatment with DSF, Lundwall et al.

S=C=S [carbon disulfide]
excretion of metabolites [1]: a volatile compound excreted in the breath

CCN(CC)C(=S)SSC(=S)N(CC)CC [disulfiram]
chemical stability of irradiated samples [2]: did not demonstrate any reduction in the concentration of disulfiram
adverse effects of oral disulfiram before the study [3]: no adverse effects
onset of diaphoresis after ethanol challenge, Subject No. 1 ([4]; 1 G disulfiram, day 7): 20 min
diaphoresis, Subject No. 1 ([4]; 1 G disulfiram, day 7, duration of the diaphoretic period): 10 min
subjective effects following ethanol challenges, Subject No. 1 ([4]; 1 G disulfiram, entire four weeks): no adverse subjective effects
subjective discomfort following ethanol challenge, Subject No. 2 ([4]; 2 G disulfiram, day 7): dizziness, facial flushing, blurred vision and headache, and their conjunctivae were observed to be injected
subjective discomfort score, Subject No. 2, at 20 minutes ([4]; 2 G disulfiram, day 7, 20 minutes, scale 1 Very well to 5 Terrible, 3 = A little unwell): 3
subjective discomfort score, Subject No. 2, at 40 minutes ([4]; 2 G disulfiram, day 7, 40 minutes, scale 1 Very well to 5 Terrible, 3 = A little unwell): 3
effects following ethanol challenge, Subject No. 2, day 28 ([4]; 2 G disulfiram, day 28): no unpleasant symptoms
positive results of alcohol challenges (symptoms) ([4]; after DSF injection, human subjects): elevated skin temperatures, dizziness, facial flushing, headache, and blurring of vision
peak acetaldehyde concentration in breath, Subject No. 1 ([5]; 1 G, compared to peak prior to treatment): elevated peak in Subject No. 1 on day 7
acetaldehyde following consumption of alcohol ([5]; FIG. 3, after injection of DSF): elevated levels of acetaldehyde
peak ethanol concentration in breath, Subject No. 1 ([6]; 1 G): elevated peak in subject No. 1, on days 7 and 14
peak ethanol concentration in breath, Subject No. 2 ([6]; 2 G): only a mild elevation in subject No. 2 on day 7
solubility of DSF in water [7]: 0.02 G/100 ml
solubility in water (in words) ([7]; listed as DSF): poorly soluble in water; also recorded: near insolubility in water
inactivation of aldehyde dehydrogenase [8]: inactivating aldehyde dehydrogenase
inactivation of aldehyde dehydrogenase ([8]; listed as DSF): inactivates aldehyde dehydrogenase by irreversible disulfide interchange reactions with thiol groups
inhibition of dopamine beta hydroxylase [9]: inhibits dopamine beta hydroxylase
end of typical response after consuming alcohol [10, 12]: ≤ 30 min
onset of typical response after consuming alcohol [10, 12]: five to ten
Disulfiram-Ethanol Reaction symptoms ([10]; pretreatment with DSF, then ethyl alcohol, listed as DSF): nausea, palpitations, flushing, hyperventilation and hypotension
excretion of metabolites [1]: the breakdown products are promptly excreted
metabolism in the blood and liver [1]: very rapidly metabolized in the blood and liver
local or systemic toxicity [11]: No evidence of local or systemic toxicity was observed
